Data as given in patent publication US20240200050A1, “AMINOACYL TRANSFER RNA SYNTHETASES” (Trustees of Tufts College, priority 2021, published 2024).

Legend:
[1] = system: ncAA-substituted synthetic antibody clones; experiment: UV-mediated photocrosslinking of ncAA-substituted synthetic antibody clones on the yeast surface; details: identical sets of crosslinking conditions
Method: (§1) Experiments were undertaken to expand the tools available for genetically encoding crosslinkable ncAAs in proteins produced in yeast. As described in the above examples, a large number of aminoacyl-tRNA synthetase (aaRS) variants were discovered that support translation with a broad set of ncAAs. Here, several of these aaRSs were evaluated alongside previously described variants to evaluate their support of protein translation with the ncAAs O-(2-bromoethyl)tyrosine (Obey), 4-benzoyl-1-phenylalanine (Bpa), or N^6-((2-(3-methyl-3H-diazirin-3-yl)ethoxy)carbonyl)-L-lysine (Photo-Lysine, Phk) (FIG. 12A). Although none of these ncAAs were used in any of the screening efforts described in the above Examples. several variants from the screens were nevertheless identified that supported translation at moderate to high efficiencies with Obey and Phk. […] The potential utility of these spontaneously crosslinkable and photocrosslinkable ncAAs was also investigated. […] The display and binding activities of these peptides were confirmed. […] For the cases of Phk and Bpa, photocrosslinkability on the yeast surface was investigated utilizing ncAA-substituted synthetic antibody clones and alongside AzF-substituted clones known to undergo UV-mediated crosslinking.

antigen = experiment: Antigen binding of yeast-displayed synthetic antibody fragments substituted with ncAAs; details: ncAA incorporated into yeast-displayed synthetic antibody fragments
Method: as §1

streptavidin = streptavidin (Streptomyces avidinii, UniProt P22629); experiment: Display and binding of ncAA-substituted anti-streptavidin peptides on the yeast surface
Method: as §1

antigen binding of ncAA-substituted constructs (in words) (antigen)	Structure (SMILES)	crosslinking on the yeast surface (in words) [1]	display and binding activities of ncAA-substituted peptides (in words) (streptavidin)
	[N-]=[N+]=Nc1ccc(C[C@H](N)C(=O)O)cc1 [AzF, p-azido-L-phenylalanine]	clear evidence	
retained antigen binding	N[C@@H](Cc1ccc(C(=O)c2ccccc2)cc1)C(=O)O [Bpa, 4-benzoyl-1-phenylalanine]	clear evidence	
	C#CCOc1ccc(C[C@H](N)C(=O)O)cc1 [OPG, p-propargyloxy-L-phenylalanine]		confirmed
retained antigen binding	CC1(CCOC(=O)NCCCC[C@H](N)C(=O)O)N=N1 [Phk, N^6-((2-(3-methyl-3H-diazirin-3-yl)ethoxy)carbonyl)-L-lysine]	did not appear to undergo detectable crosslinking	

Structure (SMILES)	antigen binding of ncAA-substituted constructs (in words) (antigen)	crosslinking on the yeast surface (in words) [1]	display and binding activities of ncAA-substituted peptides (in words) (streptavidin)
N[C@@H](Cc1ccc(OCCBr)cc1)C(=O)O [Obey, O-(2-Bromoethyl)-L-tyrosine]	retained antigen binding		confirmed
